Reference: patent publication US12590118B2, “Salt and crystal form of steroid derivative regulator” (Shanghai Hansoh Biomedical Co., Ltd., priority 2019, dated 2026)
In brackets after ≈: the same amount, converted by molar mass.

Assays:
Assay type in all cases: physicochemical
[1] = Solubility experiment (thermodynamic solubility at 37° C.); conditions: for solubility at 24 h: 37 °C, thermodynamic from solid
Procedure: The solubility of the free base and salt of the compound in water, Fasted State Simulated Gastric Fluid (FaSGF), Fasted State Simulated Intestinal Fluid (FaSSIF) and Fed State Simulated Intestinal Fluid (FeSSIF) was compared, so as to provide a basis for evaluating the druggability of the crystal form and salt.
About 2 to 3 mg of crystal forms I, II and III of the free base of Example 40 were weighed, suspended in 1 mL of Fasted State Simulated Gastric Fluid (FaSSGF), Fasted State Simulated Intestinal Fluid (FaSSIF), Fed State Simulated Intestinal Fluid (FeSSIF) and pure water respectively, and shaked for 24 hours. Thermodynamic solubility of the compound at 37° C. was determined using HPLC by external standard method.

[2] = Hygroscopicity experiment (DVS)
Procedure: The hygroscopicity of crystal forms I, II and III of the free base of Example 40 under different relative humidity conditions was investigated, so as to provide a basis for screening of the crystal form and salt of the compound, production and storage.
10 to 15 mg of the free base of Example 40 was placed in the sample chamber of DVS. DVS was carried out, and the vapour sorption weight gain percentage of the compound at 80% RH was recorded at the same time.

[3] = Solid stability experiment (total impurities)
Procedure: The physicochemical stability of candidate crystal forms I, II and III of the free base of Example 40 under influencing factors such as high temperature, high humidity and strong light was investigated, so as to provide a basis for the production and storage of the compound.
The related substance change of the free base was calculated by chromatographic peak area normalization method.

With C[C@@H]1C[C@H](C(=O)Cn2ccc(C#N)n2)[C@@]2(C)CC[C@H]3[C@@H](CC[C@@H]4C[C@](C)(O)CC[C@@H]43)[C@H]12 [Crystal form I, 1-(2-((3R,5R,8R,9R,10S,13S,14S,15R,17S)-3-Hydroxy-3,13,15-trimethylhexadecahydro-1H-cyclopenta[a]phenanthren-17-yl)-2-oxoethyl)-1H-pyrazole-3-carbonitrile] the solubility at 24 h ([1]; FaSSGF (Fasted State Simulated Gastric Fluid), fassgf or other biorelevant, FaSSGF) was under 1 µg/mL, the solubility at 24 h ([1]; FaSSIF (Fasted State Simulated Intestinal Fluid), fassif) was 3.26 µg/mL (≈ 7.7 µM) and the solubility at 24 h ([1]; FeSSIF (Fed State Simulated Intestinal Fluid), fessif) was 18.2 µg/mL (≈ 43 µM). For the same molecule, the “solubility compared among the three crystal forms (in words)” value ([1]; four media) was “the lowest”, the solubility at 24 h ([1]; pure water, water) was under 1 µg/mL and the “hygroscopicity (in words)” value ([2]; DVS) was “no hygroscopicity”. For the same molecule, the “Hygroscopicity (25° C./80% RH)” value ([2]; DVS vapour sorption weight gain at 80% RH, 25° C.) was 0.07%, the “Total impurities (%)” value ([3]; 50° C./75% RH Open, 5 d) was 0.56% and the “Total impurities (%)” value ([3]; 50° C./75% RH Open, 10 d) was 0.59%. For the same molecule, the “Total impurities (%)” value ([3]; 60° C. Sealed, 5 d) was 0.55%, the “Total impurities (%)” value ([3]; 60° C. Sealed, 10 d) was 0.56% and the “Total impurities (%)” value ([3]; Initial sample, 0 d) was 0.59%. For the same molecule, the “Total impurities (%)” value ([3]; Light 5k lux Sealed, 10 d) was 0.56%, the “Total impurities (%)” value ([3]; Light 5k lux Sealed, column printed 10 d) was 0.57% and the “Total impurities (%)” value ([3]; RT/90% RH Open, 5 d) was 0.56%. For the same molecule, the “Total impurities (%)” value ([3]; RT/90% RH Open, column printed 5 d) was 0.56% and the “change of impurities (in words)” value ([3]; high temperature, high humidity and light for 10 days) was “the impurities did not increase”.
